Laboratory results: patent US8192962B2, “Processes for detecting toxic substances” (Daikin Industries, Ltd., priority 2001, dated 2012)

System: Metabolism protein genes
Test: DNA chip mRNA expression in yeast, metabolism protein genes (Table 7)
Assay type: cell-based, Saccharomyces cerevisiae S288C
Method in brief: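 First, S288C yeast grown in YPD at 25° C. are dosed in log phase with one toxicant (growth-inhibiting, not lethal) for 2 h. Next, total RNA is extracted and poly(A) mRNA isolated and reverse-transcribed with Cy3/Cy5-dUTP. Finally, whole-genome chip fluorescence is read relative to unexposed cells.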

COc1cc(CNC(=O)CCCCC=CC(C)C)ccc1O [(12), 8-methyl-N-vanillyl-6-nonenamide]
The level of expressed mRNA in the presence of chemical substance/The level of expressed mRNA in the absence of chemical substance (yeast gene YAL012W): 1.1
The level of expressed mRNA in the presence of chemical substance/The level of expressed mRNA in the absence of chemical substance (yeast gene YAL038W): 1.2
level of expressed mRNA in the presence/in the absence of chemical substance (yeast gene YBR003W): 0.8
level of expressed mRNA in the presence/in the absence of chemical substance (yeast gene YBR011C): 1.1
level of expressed mRNA in the presence/in the absence of chemical substance (yeast gene YBR020W): 0.8
The level of expressed mRNA in the presence of chemical substance/The level of expressed mRNA in the absence of chemical substance (yeast gene YBR023C): 0.8
The level of expressed mRNA in the presence of chemical substance/The level of expressed mRNA in the absence of chemical substance (yeast gene YBR029C): 1.3
The level of expressed mRNA in the presence of chemical substance/The level of expressed mRNA in the absence of chemical substance (yeast gene YBR183W): 1.2
The level of expressed mRNA in the presence of chemical substance/The level of expressed mRNA in the absence of chemical substance (yeast gene YBR222C): 0.9
The level of expressed mRNA in the presence of chemical substance/The level of expressed mRNA in the absence of chemical substance (yeast gene YBR256C): 1.7
The level of expressed mRNA in the presence of chemical substance/The level of expressed mRNA in the absence of chemical substance (yeast gene YCL009C): 1.7
The level of expressed mRNA in the presence of chemical substance/The level of expressed mRNA in the absence of chemical substance (yeast gene YCL018W): 1.6
The level of expressed mRNA in the presence of chemical substance/The level of expressed mRNA in the absence of chemical substance (yeast gene YCL064C): 0.7
level of expressed mRNA in the presence/in the absence of chemical substance (yeast gene YCR010C): 0.8
level of expressed mRNA in the presence/in the absence of chemical substance (yeast gene YCR034W): 0.5
The level of expressed mRNA in the presence of chemical substance/The level of expressed mRNA in the absence of chemical substance (yeast gene YCR048W): 0.9
The level of expressed mRNA in the presence of chemical substance/The level of expressed mRNA in the absence of chemical substance (yeast gene YCR098C): 1.3
The level of expressed mRNA in the presence of chemical substance/The level of expressed mRNA in the absence of chemical substance (yeast gene YDL174C): 2.8
The level of expressed mRNA in the presence of chemical substance/The level of expressed mRNA in the absence of chemical substance (yeast gene YDR019C): 0.7
level of expressed mRNA in the presence/in the absence of chemical substance (yeast gene YDR050C): 1.4
level of expressed mRNA in the presence/in the absence of chemical substance (yeast gene YDR073W): 0.8
level of expressed mRNA in the presence/in the absence of chemical substance (yeast gene YDR123C): 0.5
level of expressed mRNA in the presence/in the absence of chemical substance (yeast gene YDR178W): 1.3
level of expressed mRNA in the presence/in the absence of chemical substance (yeast gene YDR277C): 0.9
level of expressed mRNA in the presence/in the absence of chemical substance (yeast gene YDR284C): 0.9
level of expressed mRNA in the presence/in the absence of chemical substance (yeast gene YDR345C): 1.4
The level of expressed mRNA in the presence of chemical substance/The level of expressed mRNA in the absence of chemical substance (yeast gene YDR380W): 0.4
level of expressed mRNA in the presence/in the absence of chemical substance (yeast gene YDR400W): 0.4
level of expressed mRNA in the presence/in the absence of chemical substance (yeast gene YDR408C): 0.6
level of expressed mRNA in the presence/in the absence of chemical substance (yeast gene YDR483W): 0.8
The level of expressed mRNA in the presence of chemical substance/The level of expressed mRNA in the absence of chemical substance (yeast gene YDR497C): 0.9
The level of expressed mRNA in the presence of chemical substance/The level of expressed mRNA in the absence of chemical substance (yeast gene YDR502C): 1.3
The level of expressed mRNA in the presence of chemical substance/The level of expressed mRNA in the absence of chemical substance (yeast gene YDR516C): 1.1
level of expressed mRNA in the presence/in the absence of chemical substance (yeast gene YEL063C): 1.1
level of expressed mRNA in the presence/in the absence of chemical substance (yeast gene YER015W): 0.9
The level of expressed mRNA in the presence of chemical substance/The level of expressed mRNA in the absence of chemical substance (yeast gene YER026C): 1.7
The level of expressed mRNA in the presence of chemical substance/The level of expressed mRNA in the absence of chemical substance (yeast gene YER053C): 1.7
The level of expressed mRNA in the presence of chemical substance/The level of expressed mRNA in the absence of chemical substance (yeast gene YER069W): 0.8
level of expressed mRNA in the presence/in the absence of chemical substance (yeast gene YER081W): 1.0
The level of expressed mRNA in the presence of chemical substance/The level of expressed mRNA in the absence of chemical substance (yeast gene YER096W): 0.9
level of expressed mRNA in the presence/in the absence of chemical substance (yeast gene YER120W): 1.3
The level of expressed mRNA in the presence of chemical substance/The level of expressed mRNA in the absence of chemical substance (yeast gene YER178W): 1.3
level of expressed mRNA in the presence/in the absence of chemical substance (yeast gene YFL011W): 0.9
The level of expressed mRNA in the presence of chemical substance/The level of expressed mRNA in the absence of chemical substance (yeast gene YFL014W): 4.3
The level of expressed mRNA in the presence of chemical substance/The level of expressed mRNA in the absence of chemical substance (yeast gene YFL030W): 1.2
The level of expressed mRNA in the presence of chemical substance/The level of expressed mRNA in the absence of chemical substance (yeast gene YFL031W): 1.0
The level of expressed mRNA in the presence of chemical substance/The level of expressed mRNA in the absence of chemical substance (yeast gene YFL056C): 1.0
The level of expressed mRNA in the presence of chemical substance/The level of expressed mRNA in the absence of chemical substance (yeast gene YFL057C): 1.0
The level of expressed mRNA in the presence of chemical substance/The level of expressed mRNA in the absence of chemical substance (yeast gene YFR047C): 1.7
level of expressed mRNA in the presence/in the absence of chemical substance (yeast gene YGL012W): 0.6
The level of expressed mRNA in the presence of chemical substance/The level of expressed mRNA in the absence of chemical substance (yeast gene YGL022W): 0.7
level of expressed mRNA in the presence/in the absence of chemical substance (yeast gene YGL115W): 0.9
The level of expressed mRNA in the presence of chemical substance/The level of expressed mRNA in the absence of chemical substance (yeast gene YGL126W): 0.6
level of expressed mRNA in the presence/in the absence of chemical substance (yeast gene YGL205W): 1.1
The level of expressed mRNA in the presence of chemical substance/The level of expressed mRNA in the absence of chemical substance (yeast gene YGL209W): 1.3
The level of expressed mRNA in the presence of chemical substance/The level of expressed mRNA in the absence of chemical substance (yeast gene YGL248W): 0.8
The level of expressed mRNA in the presence of chemical substance/The level of expressed mRNA in the absence of chemical substance (yeast gene YGR037C): 1.5
The level of expressed mRNA in the presence of chemical substance/The level of expressed mRNA in the absence of chemical substance (yeast gene YGR055W): 0.9
level of expressed mRNA in the presence/in the absence of chemical substance (yeast gene YGR096W): 0.8
level of expressed mRNA in the presence/in the absence of chemical substance (yeast gene YGR191W): 0.7
The level of expressed mRNA in the presence of chemical substance/The level of expressed mRNA in the absence of chemical substance (yeast gene YGR194C): 0.8
level of expressed mRNA in the presence/in the absence of chemical substance (yeast gene YGR204W): 1.0
The level of expressed mRNA in the presence of chemical substance/The level of expressed mRNA in the absence of chemical substance (yeast gene YGR244C): 1.9
The level of expressed mRNA in the presence of chemical substance/The level of expressed mRNA in the absence of chemical substance (yeast gene YGR256W): 1.5
The level of expressed mRNA in the presence of chemical substance/The level of expressed mRNA in the absence of chemical substance (yeast gene YGR282C): 1.3
level of expressed mRNA in the presence/in the absence of chemical substance (yeast gene YGR288W): 0.9
level of expressed mRNA in the presence/in the absence of chemical substance (yeast gene YHR025W): 0.9
The level of expressed mRNA in the presence of chemical substance/The level of expressed mRNA in the absence of chemical substance (yeast gene YHR111W): 0.9
level of expressed mRNA in the presence/in the absence of chemical substance (yeast gene YHR123W): 0.7
The level of expressed mRNA in the presence of chemical substance/The level of expressed mRNA in the absence of chemical substance (yeast gene YHR137W): 0.6
The level of expressed mRNA in the presence of chemical substance/The level of expressed mRNA in the absence of chemical substance (yeast gene YHR174W): 1.5
The level of expressed mRNA in the presence of chemical substance/The level of expressed mRNA in the absence of chemical substance (yeast gene YHR176W): 1.2
level of expressed mRNA in the presence/in the absence of chemical substance (yeast gene YHR210C): 0.5
level of expressed mRNA in the presence/in the absence of chemical substance (yeast gene YIL006W): 0.9
The level of expressed mRNA in the presence of chemical substance/The level of expressed mRNA in the absence of chemical substance (yeast gene YIL045W): 1.5
The level of expressed mRNA in the presence of chemical substance/The level of expressed mRNA in the absence of chemical substance (yeast gene YIL107C): 1.1
The level of expressed mRNA in the presence of chemical substance/The level of expressed mRNA in the absence of chemical substance (yeast gene YIL154C): 1.1
The level of expressed mRNA in the presence of chemical substance/The level of expressed mRNA in the absence of chemical substance (yeast gene YIL155C): 1.4
The level of expressed mRNA in the presence of chemical substance/The level of expressed mRNA in the absence of chemical substance (yeast gene YIL167W): 0.7
The level of expressed mRNA in the presence of chemical substance/The level of expressed mRNA in the absence of chemical substance (yeast gene YIR034C): 1.4
The level of expressed mRNA in the presence of chemical substance/The level of expressed mRNA in the absence of chemical substance (yeast gene YIR036C): 1.2
The level of expressed mRNA in the presence of chemical substance/The level of expressed mRNA in the absence of chemical substance (yeast gene YJL031C): 1.3
The level of expressed mRNA in the presence of chemical substance/The level of expressed mRNA in the absence of chemical substance (yeast gene YJL068C): 1.7
The level of expressed mRNA in the presence of chemical substance/The level of expressed mRNA in the absence of chemical substance (yeast gene YJL088W): 0.7
The level of expressed mRNA in the presence of chemical substance/The level of expressed mRNA in the absence of chemical substance (yeast gene YJL099W): 1.0
level of expressed mRNA in the presence/in the absence of chemical substance (yeast gene YJL121C): 0.6
level of expressed mRNA in the presence/in the absence of chemical substance (yeast gene YJL167W): 1.3
The level of expressed mRNA in the presence of chemical substance/The level of expressed mRNA in the absence of chemical substance (yeast gene YJL172W): 1.1
level of expressed mRNA in the presence/in the absence of chemical substance (yeast gene YJL216C): 1.0
The level of expressed mRNA in the presence of chemical substance/The level of expressed mRNA in the absence of chemical substance (yeast gene YJL219W): 1.1
level of expressed mRNA in the presence/in the absence of chemical substance (yeast gene YJR077C): 1.0
The level of expressed mRNA in the presence of chemical substance/The level of expressed mRNA in the absence of chemical substance (yeast gene YJR137C): 1.4
